Where “and” joins values, the source holds several entries; their conditions need not be identical. Identical values can stand only once.
What was measured:
[1] = Investigation of sedation side effects (autonomic activity, movement distance); format: in vivo, mice; conditions: mouse, in vivo, ip; C57BL/6j mice, intraperitoneal, 45 min after administration
Protocol: 1.3 Investigation of Sedation Side Effects (Anti-Sedation Model)
According to different doses of each group, solutions at different concentrations were separately formulated for intraperitoneal injection, with the final administration volume of 10 mL/kg.
The movement at 0-20 min was recorded on video, and the movement distance in 20 min was analyzed by Top Scan 3.00 software. The inhibition rate of each group relative to the blank group after the administration were calculated, and the sedation effects of the compounds were comprehensively evaluated in combination with a statistical conclusion.

[2] = test system: MK-801-induced high activity behavior of mice; assay: Dizocilpine (MK-801)-induced high activity test in mice; format: in vivo; conditions: Mus musculus, 1 h, intragastric, MK-801 0.3 mg/kg i.p., 60 min, read-out: ED50 for inhibiting the MK-801-induced high activity behavior
Protocol: 2. Dizocilpine (MK-801)-Induced High Activity Test in Mice 2.1 Test Method
Mice were stratified according to body weight and then randomly divided into a model control group, a blank control group and drug administration groups. After the administration of a test substance (or a control substance), the mice were placed into an autonomous activity test box (a black polyethylene box with the specification of 29 cm×29 cm×30 cm) for adaptation, and injected with MK-801 at 0.3 mg/kg intraperitoneally 1 h after the intragastric administration. The mice were then placed into the autonomous activity test box for video recording for 60 min. Video analysis was performed after the video recording to evaluate the activity of the mice.

[3] = test system: MPTP+MK-801-induced Parkinson's disease mouse model; assay: MPTP+MK-801-induced Parkinson's disease mouse model (anti-PDP efficacy model); format: in vivo; conditions: ip, mice, intraperitoneal, read-out: PDP efficacy (high activity) ED50
Protocol: 1.1 Effect on MPTP+MK-801-induced Parkinson's disease mouse model (anti-PDP efficacy model)
Animals were injected with different doses of MPTP(1-methyl-4-phenyl-1,2,3,6-tetrahydropyridine) intraperitoneally every morning for 5 consecutive days. […] Then, after an interval of 0.25 h, the mice were placed into an autonomous activity test box (a black polyethylene box with the specification of 29 cm×29 cm×30 cm) for video recording for 20 min. Video analysis was performed after the video recording to evaluate the activity of the mice.

[4] = test system: PPI in normal rats; assay: PPI in normal rats (dosing test, normal saline instead of DOI); format: in vivo; conditions: for PPI %, MEAN / PPI %, individual animal: normal saline
Protocol: (§1) The test was performed according to literature and preliminary experiments, and the specific process was as follows: first an adaptation period of 5 min was given (62 dB background sound), and 5 separate startle reflex stimuli were given after the adaptation period (blockl, results not included in the analysis to reduce the initial response of the animals to a plateau level), followed by 4 different types of tests (block2) presented in a pseudo-random manner, namely: 1) startle reflex stimulus alone (pulse-alone, 120 dB, lasting 20 ms); 2) prepulse stimulus alone 13 dB above the background sound (prepulse-alone, 75 dB, lasting 20 ms); 3) prepulse stimulus in combination with startle reflex stimulus, each lasting 20 ms, with an interval of 100 ms; and 4) no stimulus in which only the background sound was given (no stimulus). Each trial was performed 5 times, with an average interval of 20 s (10-30 s) between trials.
(§2) The response amplitude of the startle reflex stimulus alone or the prepulse stimulus in combination with startle reflex stimulus was expressed as the AVG (instrument-specific unit) value, which indirectly reflects the size of the flinching response of the rat body. Evaluation index: PPI %=(1−response amplitude of prepulse stimulus in combination with startle reflex stimulus/response amplitude of startle reflex stimulus alone)×100. The higher the value is, the greater the degree of the inhibition is. Dosing Test:
The DOI at 0.5 mg/kg administered to animals in the above groups was changed to normal saline (NS), and other operations including administration and testing were the same as those in the intervention test.

[5] = test system: DOI-induced PPI impairment in rats; assay: DOI-induced PPI impairment test in rats (intervention test); format: in vivo; conditions: DOI 0.5 mg/kg
Protocol: 3. DOI ((f)-1-(2,5-dimethoxy-4-iodophenyl)-2-aminopropane hydrochloride or (f)-2,5-dimethoxy-4-iodoamphetamine hydrochloride) induced PPI impairment effect test in rats
30 min after the intragastric administration of a drug (or a vehicle) and 30 min after the subcutaneous injection of DOI at 0.5 mg/kg at the neck, namely 60 min after the intragastric administration, the rats were placed into a startle reflex test box for testing.
as §1
as §2, with “is.” for “is. Dosing Test:”

[6] = molecular target: hERG potassium channel (Homo sapiens (Human), UniProt Q12809); assay: In vitro hERG assay, whole-cell patch clamp in HEK-293 cells; format: cell-based; conditions: HEK-293 cells stably expressing hERG, room temperature
Protocol: b. […] The working solutions of the test compounds were ultrasonically treated for 20 min.
The cell suspension was gently pipetted to separate the aggregated cells.
Under an inverted microscope, recording electrodes were controlled by a glass electrode micromanipulator (micromanipulation) to contact with the cell. […] After forming the GΩ seal, a rapid capacitance compensation was given.
Negative control and test compounds flowed through the recording chamber in an ascending order of concentration by gravity perfusion to quickly act on the cells. During the recording, the extracellular fluid was continuously circulated by a vacuum pump. […] Each concentration was allowed to act for 5 min or until the current was stabilized. All experiments were performed at room temperature.
[formula] Basic statistics were calculated for each concentration, including mean, standard deviation (SD), standard error (SE), and replicates (n). The dose-dependent curve was fitted with the following equation and the half maximal inhibitory concentration (IC50) of the test compounds was calculated:
Curve fitting and calculation of IC50 were performed by GraphPad Prism 5.0 software. 5. Experimental Results

[7] = molecular target: 5-HT2C receptor (Rattus norvegicus (Rat), UniProt P08909); conditions: read-out: 5-HT2C (Ki value); rat cortex membrane, 3H-Mesulergine
Protocol: 2) Preparation of 5-HT2C Membrane
The rat cortex was taken out of a refrigerator at −80° C. and thawed spontaneously. The solution A was added, and the mixture was homogenized for 3-4 s at 4th gear for a total of 4 times and centrifuged at 50000 g for 25 min at 4° C. The supernatant was discarded, and the solution A was added into the precipitate. The mixture was mixed well using a vortex mixer and centrifuged at 50000 g for 25 min at 4° C. (repeated twice). The supernatant was discarded after the centrifugation, and the precipitate was stored at −80° C. for later use.
2) Competitive 5-HT2C Receptor Binding Assay
Step 1: the prepared membrane was suspended in the homogenate B to obtain a 210 mg/mL membrane suspension for later use.
Step 2: 100 μL of the membrane suspension was added into each reaction tube.
Step 3: 100 μL of the solution B was added into a total binding tube (TB), 100 μL of Ketanserin (final concentration: 1.0×10^−5 M) was added into a non-specific binding tube (NB), and 100 μL of test compound was added into each compound binding tube (CB).
Step 4: 10 μL of radioligand ^3H-Mesulergine was added into each reaction tube to reach a final concentration of 3 nM.
Step 5: each reaction tube was incubated at 37° C. for 25 min. After the reaction was completed, the binding ligands were rapidly filtered under reduced pressure, wherein the Whatman test paper GF/C was washed with 0.5% PEI solution 1 h in advance. The filter membrane was fully washed with cold Tris buffer solution, taken out and put into a 4 mL scintillation disc, which was then added with 1 mL toluene scintillation solution and shaken for mixing well.
Step 6: the scintillation disc was put into a liquid scintillation counter for counting.

[8] = test system: DOI-induced head shaking behavior of mice; assay: DOI-induced head shaking (head thrust) test in mice; format: in vivo; conditions: Mus musculus, intragastric, DOI 1 mg/kg i.p., 0-20 min, read-out: ED50 for inhibiting the DOI-induced head shaking behavior
Protocol: 1. Head Thrust Test in Mice
Mice were stratified according to body weight and then randomly divided into a model control group, a blank control group and drug administration groups. 1 h after the intragastric administration of a vehicle or a drug, the animals were placed in a beaker (with the diameter of 13 cm and the height of 19 cm) paved with fresh padding, and were injected with a modeling drug DOI ((±)-1-(2,5-dimethoxy-4-iodophenyl)-2-aminopropane hydrochloride or (±)-2,5-dimethoxy-4-iodoamphetamine hydrochloride) intraperitoneally at a dose of 1 mg/kg. The head shaking times of the mice during the 0-20 min after the intraperitoneal injection of DOI were recorded. The head shaking behavior is defined as a rapid rotational twitching or wet dog-like shaking of the mouse head, which is distinguished from normal grooming or exploring behavior.

[9] = molecular target: 5-HT2A receptor (Homo sapiens (Human), UniProt P28223); assay: Competitive 5-HT2A receptor binding assay (3H-Ketanserin, CHO-5-HT2A membrane)
Protocol: 1) Preparation of CHO-5-HT2A Receptor Membrane
The precipitate was collected, and the supernatant was discarded. The solution B was added into the precipitate. […] The supernatant was carefully discarded, and the solution B was added into the precipitate again. […] The precipitate obtained was stored at −80° C.
1) Competitive 5-HT2A Receptor Binding Assay
Step 2: 100 μL of the membrane preparation was added into each reaction tube.
After the filtration, the filter membrane was dried at 60° C. and added into a scintillation disc attached with a bottom membrane, which was then added with 40 μL of scintillation liquid, sealed with a top membrane, and left to stand.

Sequence of 5-HT2A receptor (P28223 whole entry): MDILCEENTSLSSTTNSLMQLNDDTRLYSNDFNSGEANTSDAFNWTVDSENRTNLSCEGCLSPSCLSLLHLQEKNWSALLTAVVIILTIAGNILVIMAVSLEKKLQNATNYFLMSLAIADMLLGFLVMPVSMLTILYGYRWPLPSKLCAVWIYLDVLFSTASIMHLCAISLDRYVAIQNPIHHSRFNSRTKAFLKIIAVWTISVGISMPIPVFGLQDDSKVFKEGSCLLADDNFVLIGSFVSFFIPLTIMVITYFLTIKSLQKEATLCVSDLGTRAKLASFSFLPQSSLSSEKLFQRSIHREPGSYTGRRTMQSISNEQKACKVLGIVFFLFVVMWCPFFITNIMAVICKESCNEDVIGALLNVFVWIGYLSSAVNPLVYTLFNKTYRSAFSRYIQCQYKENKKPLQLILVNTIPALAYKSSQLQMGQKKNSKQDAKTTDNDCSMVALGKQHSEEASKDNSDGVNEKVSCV
Sequence of 5-HT2C receptor (P08909 33-460): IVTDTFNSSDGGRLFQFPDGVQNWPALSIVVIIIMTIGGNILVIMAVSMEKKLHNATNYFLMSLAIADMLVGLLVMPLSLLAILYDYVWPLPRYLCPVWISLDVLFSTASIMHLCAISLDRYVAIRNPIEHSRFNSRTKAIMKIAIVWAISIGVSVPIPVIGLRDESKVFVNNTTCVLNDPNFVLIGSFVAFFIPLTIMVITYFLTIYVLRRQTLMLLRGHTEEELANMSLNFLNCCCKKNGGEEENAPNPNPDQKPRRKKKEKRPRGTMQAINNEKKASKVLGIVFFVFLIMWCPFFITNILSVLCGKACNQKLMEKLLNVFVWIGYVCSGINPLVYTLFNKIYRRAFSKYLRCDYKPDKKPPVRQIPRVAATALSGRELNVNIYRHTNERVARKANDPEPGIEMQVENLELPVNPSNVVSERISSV
Sequence of hERG potassium channel (Q12809 whole entry): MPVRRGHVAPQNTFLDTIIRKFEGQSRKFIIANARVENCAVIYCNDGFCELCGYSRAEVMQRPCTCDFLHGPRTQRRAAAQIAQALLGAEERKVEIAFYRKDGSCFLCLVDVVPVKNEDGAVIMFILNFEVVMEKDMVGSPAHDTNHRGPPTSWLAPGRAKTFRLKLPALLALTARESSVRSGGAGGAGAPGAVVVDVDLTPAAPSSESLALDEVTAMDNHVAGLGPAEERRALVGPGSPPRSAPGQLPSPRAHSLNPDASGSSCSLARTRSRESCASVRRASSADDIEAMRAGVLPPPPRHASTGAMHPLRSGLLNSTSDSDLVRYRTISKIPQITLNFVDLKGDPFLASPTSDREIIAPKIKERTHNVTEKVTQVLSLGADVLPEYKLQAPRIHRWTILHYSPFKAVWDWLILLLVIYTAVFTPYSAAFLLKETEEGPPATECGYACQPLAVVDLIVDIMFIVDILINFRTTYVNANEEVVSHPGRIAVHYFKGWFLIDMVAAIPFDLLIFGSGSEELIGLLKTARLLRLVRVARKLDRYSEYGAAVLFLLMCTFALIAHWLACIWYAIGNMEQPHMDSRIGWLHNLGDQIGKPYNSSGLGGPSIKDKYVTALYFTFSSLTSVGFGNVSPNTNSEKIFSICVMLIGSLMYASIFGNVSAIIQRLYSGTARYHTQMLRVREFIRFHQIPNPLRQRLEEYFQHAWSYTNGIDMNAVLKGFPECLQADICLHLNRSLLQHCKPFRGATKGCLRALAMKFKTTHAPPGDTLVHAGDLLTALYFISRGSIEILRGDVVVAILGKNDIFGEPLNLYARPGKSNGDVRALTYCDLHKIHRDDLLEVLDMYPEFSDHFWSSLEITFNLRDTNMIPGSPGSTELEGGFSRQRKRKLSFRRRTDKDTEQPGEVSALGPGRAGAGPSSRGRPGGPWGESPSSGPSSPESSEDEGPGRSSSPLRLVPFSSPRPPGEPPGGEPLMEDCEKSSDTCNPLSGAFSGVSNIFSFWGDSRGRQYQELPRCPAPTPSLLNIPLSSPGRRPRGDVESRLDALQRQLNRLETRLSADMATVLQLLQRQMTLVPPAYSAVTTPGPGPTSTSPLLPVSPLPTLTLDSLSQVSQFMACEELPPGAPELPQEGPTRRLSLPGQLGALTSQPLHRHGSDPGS

## CN1CCC(N2Cc3cc(F)ccc3CN(Cc3ccc(OC4CC4)cc3)C2=O)CC1 [NH-K-A19006, 8-fluoro-2-(1-methylpiperidin-4-yl)-4-[[4-(cyclopropoxy)phenyl]methyl]-1,5-dihydro-2,4-benzodiazepine-3-one]
[1]
  ED50 at 45 min: 11.9 mg/kg
[2]
  ED50: 0.265 mg/kg
[3]
  ED50: 0.31 mg/kg
[4]; 0.3 mg/kg
  effect on PPI in normal rats: no significant effects were seen
[4]; 0.03 mg/kg intragastric
  PPI %, MEAN: 68.69%
  PPI %, individual animal: 81.41% and 91.96% and 55.90% and 54.35% and 60.94% and 74.39% and 87.22% and 43.35%
[4]; 0.1 mg/kg intragastric
  PPI %, MEAN: 70.23%
  PPI %, individual animal: 60.40% (2×) and 81.41% and 77.50% and 71.96% and 69.71% and 50.53% and 89.95%
[4]; 0.3 mg/kg intragastric
  PPI %, MEAN: 53.62%
  PPI %, individual animal: 47.76% and 42.79% and 68.71% and 70.20% and 55.52% and 65.07% and 16.28% and 62.68%
[5]; 0.3 mg/kg, P<0.05
  reversal of DOI-induced PPI impairment: significantly reverse
[5]; 0.03 mg/kg intragastric
  PPI %, MEAN: 33.01%
  PPI %, individual animal: 49.78% and 58.97% and 53.17% and 2.79% and 32.00% and 8.44% and 20.87% and 38.06%
[5]; 0.1 mg/kg intragastric
  PPI %, MEAN: 43.48%
  PPI %, individual animal: 12.46% and 51.33% and 38.29% and 47.73% and 47.53% and 74.93% and 10.18% and 65.40%
[5]; 0.3 mg/kg intragastric
  PPI %, MEAN: 50.12%
  PPI %, individual animal: 60.53% and 60.18% and 56.91% and 67.62% and 85.73% and 7.56% and 39.78% and 22.65%
[6]
  IC50: 1190 nM
[7]
  Ki: 1.62 nM
[8]
  ED50: 0.012 mg/kg
[9]; CHO-5-HT2A membrane, 3H-Ketanserin, read-out: 5-HT2A (Ki value)
  Ki: 0.277 nM
[9]; ratio of 5-HT2C Ki to 5-HT2A Ki
  2C/2A: 5.856
